# Measured values as given in ChEMBL document CHEMBL4507299, “Data for DCP probe PF-04554878” (2021).
# Key:
# [1] = biological target: T1, Serine/threonine-protein kinase 3 (Homo sapiens) (UniProt Q13188)
# T1 sequence (whole entry): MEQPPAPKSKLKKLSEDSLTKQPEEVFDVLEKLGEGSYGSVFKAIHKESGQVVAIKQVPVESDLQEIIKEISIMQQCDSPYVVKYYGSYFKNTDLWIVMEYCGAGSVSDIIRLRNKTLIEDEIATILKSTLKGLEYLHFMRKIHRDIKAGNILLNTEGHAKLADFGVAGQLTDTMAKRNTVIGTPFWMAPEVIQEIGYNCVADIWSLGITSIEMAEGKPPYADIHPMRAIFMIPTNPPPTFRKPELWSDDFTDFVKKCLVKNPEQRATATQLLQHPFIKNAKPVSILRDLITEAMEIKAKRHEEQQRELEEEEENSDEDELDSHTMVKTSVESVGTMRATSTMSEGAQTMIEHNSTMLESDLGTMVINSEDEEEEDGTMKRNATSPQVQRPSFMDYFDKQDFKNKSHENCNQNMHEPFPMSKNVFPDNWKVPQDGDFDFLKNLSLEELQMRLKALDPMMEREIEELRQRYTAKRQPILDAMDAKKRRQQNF
# [2] = biological target: Calcium/calmodulin-dependent protein kinase kinase 1 (Homo sapiens) (UniProt Q8N5S9)
# [3] = biological target: Dual specificity mitogen-activated protein kinase kinase 3 (Homo sapiens) (UniProt P46734)
# [4] = biological target: Mitogen-activated protein kinase 14 (Homo sapiens) (UniProt Q16539)
# [5] = biological target: Mitotic checkpoint serine/threonine-protein kinase BUB1 (Homo sapiens) (UniProt O43683)
# [6] = biological target: Receptor-interacting serine/threonine-protein kinase 2 (Homo sapiens) (UniProt O43353)
# [7] = biological target: Cyclin-dependent kinase 5 (Homo sapiens) (UniProt Q00535)
# [8] = biological target: Calcium/calmodulin-dependent protein kinase type 1G (Homo sapiens) (UniProt Q96NX5)
# [9] = test system: Epidermal growth factor receptor (Homo sapiens), P00533 [UNDEFINED MUTATION]
# [10] = biological target: Aurora kinase B (Homo sapiens) (UniProt Q96GD4)
# [11] = biological target: MAP kinase-interacting serine/threonine-protein kinase 1 (Homo sapiens) (UniProt Q9BUB5)
# [12] = biological target: Protein kinase C delta type (Homo sapiens) (UniProt Q05655)
# [13] = biological target: Mitogen-activated protein kinase kinase kinase 19 (Homo sapiens) (UniProt Q56UN5)
# [14] = biological target: Receptor-interacting serine/threonine-protein kinase 4 (Homo sapiens) (UniProt P57078)
# [15] = biological target: Uncharacterized serine/threonine-protein kinase SBK3 (Homo sapiens) (UniProt P0C264)
# [16] = biological target: NUAK family SNF1-like kinase 1 (Homo sapiens) (UniProt O60285)
# [17] = biological target: Serine/threonine-protein kinase 26 (Homo sapiens) (UniProt Q9P289)
# [18] = biological target: Interleukin-1 receptor-associated kinase 4 (Homo sapiens) (UniProt Q9NWZ3)
# [19] = biological target: Tyrosine-protein kinase ABL1 (Homo sapiens, UniProt P00519)
# [20] = biological target: Alpha-1B adrenergic receptor (Homo sapiens) (UniProt P35368); conditions: Compound concentration 10.0 uM
# [21] = biological target: Mitogen-activated protein kinase kinase kinase 20 (Homo sapiens) (UniProt Q9NYL2)
# [22] = biological target: Cyclin-dependent kinase 4 (Homo sapiens) (UniProt P11802)
# [23] = biological target: Tyrosine-protein kinase ABL2 (Homo sapiens) (UniProt P42684)
# [24] = biological target: Casein kinase II subunit alpha (Homo sapiens) (UniProt P68400)
# [25] = test system: Tyrosine-protein kinase ABL1 (Homo sapiens), P00519 [Q252H]
# [26] = biological target: Epithelial discoidin domain-containing receptor 1 (Homo sapiens) (UniProt Q08345)
# [27] = biological target: Vascular endothelial growth factor receptor 2 (Homo sapiens) (UniProt P35968)
# [28] = biological target: MAP/microtubule affinity-regulating kinase 4 (Homo sapiens) (UniProt Q96L34)
# [29] = biological target: Serine/threonine-protein kinase BRSK1 (Homo sapiens) (UniProt Q8TDC3)
# [30] = biological target: 5-hydroxytryptamine receptor 3A (Homo sapiens) (UniProt P46098); conditions: Compound concentration 10.0 uM
# [31] = biological target: Phosphatidylinositol 4,5-bisphosphate 3-kinase catalytic subunit delta isoform (Homo sapiens) (UniProt O00329)
# [32] = biological target: Serine/threonine-protein kinase Nek4 (Homo sapiens) (UniProt P51957)
# [33] = biological target: Cyclin-dependent kinase 9 (Homo sapiens) (UniProt P50750)
# [34] = biological target: Calcium/calmodulin-dependent protein kinase type 1B (Homo sapiens) (UniProt Q6P2M8)
# [35] = test system: Tyrosine-protein kinase ABL1 (Homo sapiens), P00519 [Q252H]; remark: listed apart in the source
# [36] = biological target: Mitogen-activated protein kinase kinase kinase kinase 5 (Homo sapiens) (UniProt Q9Y4K4)
# [37] = biological target: Ephrin type-A receptor 6 (Homo sapiens) (UniProt Q9UF33)
# [38] = test system: Receptor-type tyrosine-protein kinase FLT3 (Homo sapiens), P36888 [D835H]
# [39] = Compound concentration 100.0 nM
# [40] = Compound concentration 1000.0 nM
# Sequence of Cyclin-dependent kinase 5 (Homo sapiens) (Q00535 whole entry, looked up): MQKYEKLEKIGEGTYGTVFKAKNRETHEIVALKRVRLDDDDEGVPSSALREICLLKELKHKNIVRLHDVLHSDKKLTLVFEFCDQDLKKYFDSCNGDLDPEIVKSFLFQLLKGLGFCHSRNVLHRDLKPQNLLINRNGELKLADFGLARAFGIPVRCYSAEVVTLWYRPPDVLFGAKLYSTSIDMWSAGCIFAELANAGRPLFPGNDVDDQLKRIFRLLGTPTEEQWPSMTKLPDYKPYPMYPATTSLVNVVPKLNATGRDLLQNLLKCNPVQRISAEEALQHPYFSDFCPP
# Sequence of Mitogen-activated protein kinase kinase kinase 19 (Homo sapiens) (Q56UN5 whole entry): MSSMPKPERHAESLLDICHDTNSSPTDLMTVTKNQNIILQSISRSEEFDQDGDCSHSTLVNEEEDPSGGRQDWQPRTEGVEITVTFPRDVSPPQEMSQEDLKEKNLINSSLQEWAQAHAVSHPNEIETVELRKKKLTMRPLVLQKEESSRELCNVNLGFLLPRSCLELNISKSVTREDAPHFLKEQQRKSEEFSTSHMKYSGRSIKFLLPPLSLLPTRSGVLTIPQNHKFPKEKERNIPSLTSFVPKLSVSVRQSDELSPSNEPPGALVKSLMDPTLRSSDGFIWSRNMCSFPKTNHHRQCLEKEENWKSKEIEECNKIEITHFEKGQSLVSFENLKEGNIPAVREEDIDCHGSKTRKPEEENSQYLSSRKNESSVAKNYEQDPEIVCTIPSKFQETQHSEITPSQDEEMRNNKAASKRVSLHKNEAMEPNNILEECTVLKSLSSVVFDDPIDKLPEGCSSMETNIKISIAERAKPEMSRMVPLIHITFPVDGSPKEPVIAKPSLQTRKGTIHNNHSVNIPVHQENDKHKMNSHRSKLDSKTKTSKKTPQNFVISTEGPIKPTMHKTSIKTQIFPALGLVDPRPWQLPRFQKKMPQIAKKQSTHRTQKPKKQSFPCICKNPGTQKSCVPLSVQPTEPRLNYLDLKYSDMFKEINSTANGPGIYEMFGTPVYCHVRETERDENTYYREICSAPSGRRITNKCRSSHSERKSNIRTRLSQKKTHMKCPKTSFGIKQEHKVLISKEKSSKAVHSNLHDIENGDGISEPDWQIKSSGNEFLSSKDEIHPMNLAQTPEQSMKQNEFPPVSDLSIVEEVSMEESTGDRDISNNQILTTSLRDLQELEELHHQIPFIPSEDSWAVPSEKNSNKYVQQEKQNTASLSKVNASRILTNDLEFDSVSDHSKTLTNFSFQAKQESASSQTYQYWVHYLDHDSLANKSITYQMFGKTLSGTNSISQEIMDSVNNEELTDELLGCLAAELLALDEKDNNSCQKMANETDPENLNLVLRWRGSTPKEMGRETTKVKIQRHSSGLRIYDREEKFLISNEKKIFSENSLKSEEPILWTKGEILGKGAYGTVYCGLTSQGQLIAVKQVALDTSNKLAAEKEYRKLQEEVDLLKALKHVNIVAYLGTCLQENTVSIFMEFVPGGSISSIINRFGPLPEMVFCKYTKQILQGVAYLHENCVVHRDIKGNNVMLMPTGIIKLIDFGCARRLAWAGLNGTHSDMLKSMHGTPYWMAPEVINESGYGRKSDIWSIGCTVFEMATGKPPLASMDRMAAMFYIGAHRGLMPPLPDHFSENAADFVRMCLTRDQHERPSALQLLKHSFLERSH
# Sequence of Calcium/calmodulin-dependent protein kinase type 1B (Homo sapiens) (Q6P2M8 whole entry): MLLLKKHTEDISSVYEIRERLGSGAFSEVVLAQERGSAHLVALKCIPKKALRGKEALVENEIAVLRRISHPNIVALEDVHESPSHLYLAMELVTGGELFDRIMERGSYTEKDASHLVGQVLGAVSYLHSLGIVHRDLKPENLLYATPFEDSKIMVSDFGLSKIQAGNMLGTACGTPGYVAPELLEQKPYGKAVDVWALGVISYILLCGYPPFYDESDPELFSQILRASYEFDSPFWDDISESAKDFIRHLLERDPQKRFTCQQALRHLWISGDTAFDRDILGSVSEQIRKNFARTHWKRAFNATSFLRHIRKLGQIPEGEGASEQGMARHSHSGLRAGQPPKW
# Sequence of Cyclin-dependent kinase 4 (Homo sapiens) (P11802 whole entry): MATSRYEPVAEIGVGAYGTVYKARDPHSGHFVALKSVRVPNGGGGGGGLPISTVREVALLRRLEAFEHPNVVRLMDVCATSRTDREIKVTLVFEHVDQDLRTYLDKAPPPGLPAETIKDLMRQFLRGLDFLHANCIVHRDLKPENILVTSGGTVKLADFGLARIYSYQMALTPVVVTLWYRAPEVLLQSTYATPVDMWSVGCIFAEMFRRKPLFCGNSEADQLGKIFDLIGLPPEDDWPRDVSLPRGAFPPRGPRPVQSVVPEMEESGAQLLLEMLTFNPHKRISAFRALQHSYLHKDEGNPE
# Sequence of Tyrosine-protein kinase ABL2 (Homo sapiens) (P42684 whole entry): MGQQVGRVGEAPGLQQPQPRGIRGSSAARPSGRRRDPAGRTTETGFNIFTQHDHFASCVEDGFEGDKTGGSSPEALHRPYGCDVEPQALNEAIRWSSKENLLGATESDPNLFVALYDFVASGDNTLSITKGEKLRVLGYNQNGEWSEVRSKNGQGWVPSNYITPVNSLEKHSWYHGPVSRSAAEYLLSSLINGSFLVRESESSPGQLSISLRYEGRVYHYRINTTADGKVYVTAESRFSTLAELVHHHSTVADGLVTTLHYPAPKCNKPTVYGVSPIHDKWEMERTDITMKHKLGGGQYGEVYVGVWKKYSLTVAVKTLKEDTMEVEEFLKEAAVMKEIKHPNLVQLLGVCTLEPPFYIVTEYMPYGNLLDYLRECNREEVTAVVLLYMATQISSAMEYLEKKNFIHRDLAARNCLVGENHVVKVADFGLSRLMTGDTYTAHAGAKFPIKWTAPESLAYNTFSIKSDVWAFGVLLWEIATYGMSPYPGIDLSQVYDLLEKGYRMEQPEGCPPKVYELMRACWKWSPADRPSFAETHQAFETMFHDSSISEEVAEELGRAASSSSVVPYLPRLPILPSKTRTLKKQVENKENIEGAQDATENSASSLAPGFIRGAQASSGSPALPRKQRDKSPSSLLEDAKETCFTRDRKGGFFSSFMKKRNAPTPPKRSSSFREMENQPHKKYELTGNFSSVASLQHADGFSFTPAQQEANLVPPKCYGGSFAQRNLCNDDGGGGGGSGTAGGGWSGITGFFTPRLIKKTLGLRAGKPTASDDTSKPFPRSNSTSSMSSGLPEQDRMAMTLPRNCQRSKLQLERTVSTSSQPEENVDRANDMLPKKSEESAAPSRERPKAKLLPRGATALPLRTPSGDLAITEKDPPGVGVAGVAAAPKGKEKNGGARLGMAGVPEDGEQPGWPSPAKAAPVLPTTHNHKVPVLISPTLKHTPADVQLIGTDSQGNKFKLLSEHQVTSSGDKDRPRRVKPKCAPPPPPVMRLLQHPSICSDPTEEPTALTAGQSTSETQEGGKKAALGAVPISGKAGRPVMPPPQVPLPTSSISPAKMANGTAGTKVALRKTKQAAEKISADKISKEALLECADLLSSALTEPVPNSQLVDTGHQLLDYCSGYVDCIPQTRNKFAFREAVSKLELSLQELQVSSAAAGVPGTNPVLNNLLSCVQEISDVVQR
# Sequence of Calcium/calmodulin-dependent protein kinase type 1G (Homo sapiens) (Q96NX5 whole entry): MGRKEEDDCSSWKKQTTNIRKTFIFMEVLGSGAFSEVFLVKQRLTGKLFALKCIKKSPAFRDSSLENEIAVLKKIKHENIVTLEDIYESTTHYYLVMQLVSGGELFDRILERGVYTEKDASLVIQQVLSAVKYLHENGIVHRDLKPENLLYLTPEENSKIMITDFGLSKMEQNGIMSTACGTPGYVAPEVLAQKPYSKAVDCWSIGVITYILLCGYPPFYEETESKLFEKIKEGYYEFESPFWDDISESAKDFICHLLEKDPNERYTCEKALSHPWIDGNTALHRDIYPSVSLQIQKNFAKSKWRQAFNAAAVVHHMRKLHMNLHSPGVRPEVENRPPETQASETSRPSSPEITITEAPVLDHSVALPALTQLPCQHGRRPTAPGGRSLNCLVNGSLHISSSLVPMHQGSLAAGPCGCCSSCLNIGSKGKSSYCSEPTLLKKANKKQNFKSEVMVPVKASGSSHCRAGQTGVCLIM
# Sequence of Interleukin-1 receptor-associated kinase 4 (Homo sapiens) (Q9NWZ3 whole entry): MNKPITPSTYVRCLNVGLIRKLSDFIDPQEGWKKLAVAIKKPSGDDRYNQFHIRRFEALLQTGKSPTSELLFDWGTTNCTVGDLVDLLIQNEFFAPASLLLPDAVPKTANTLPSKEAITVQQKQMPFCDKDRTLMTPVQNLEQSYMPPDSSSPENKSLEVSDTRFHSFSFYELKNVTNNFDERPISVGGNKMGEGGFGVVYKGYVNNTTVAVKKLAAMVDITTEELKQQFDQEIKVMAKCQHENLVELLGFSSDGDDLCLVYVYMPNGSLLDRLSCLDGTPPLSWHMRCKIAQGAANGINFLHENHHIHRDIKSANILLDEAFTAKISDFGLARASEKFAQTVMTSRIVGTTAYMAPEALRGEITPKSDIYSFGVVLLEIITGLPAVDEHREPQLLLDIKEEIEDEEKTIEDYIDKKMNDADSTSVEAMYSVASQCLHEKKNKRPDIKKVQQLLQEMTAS
# Sequence of MAP kinase-interacting serine/threonine-protein kinase 1 (Homo sapiens) (Q9BUB5 whole entry, looked up): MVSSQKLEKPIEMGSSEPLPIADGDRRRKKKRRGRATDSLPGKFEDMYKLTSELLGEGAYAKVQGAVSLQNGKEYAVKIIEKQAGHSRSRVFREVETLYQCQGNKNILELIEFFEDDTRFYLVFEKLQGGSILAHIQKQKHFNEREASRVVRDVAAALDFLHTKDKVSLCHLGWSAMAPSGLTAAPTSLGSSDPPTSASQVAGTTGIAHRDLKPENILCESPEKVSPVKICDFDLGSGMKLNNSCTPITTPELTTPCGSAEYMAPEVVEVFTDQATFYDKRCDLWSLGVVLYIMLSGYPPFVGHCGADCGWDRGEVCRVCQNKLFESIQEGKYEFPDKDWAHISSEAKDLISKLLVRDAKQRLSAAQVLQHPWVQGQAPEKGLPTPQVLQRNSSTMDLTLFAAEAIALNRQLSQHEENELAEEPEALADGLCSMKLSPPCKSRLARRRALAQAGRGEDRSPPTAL
structure (smiles),measurement,setting,value
CNC(=O)c1ccc(Nc2ncc(C(F)(F)F)c(NCc3nccnc3N(C)S(C)(=O)=O)n2)cc1 [DEFACTINIB],residual activity,[1]; [39],68%
same,residual activity,[2]; [39],75%
same,residual activity,[3]; [39],48%
same,residual activity,[4]; [39],100%
same,residual activity,[5]; [39],100%
same,residual activity,[6]; [39],100%
same,residual activity,[7]; [39],81%
same,residual activity,[8]; [39],89%
same,residual activity,[9]; [39],93%
same,residual activity,[10]; [39],73%
same,residual activity,[11]; [39],83%
same,residual activity,[12]; [39],100%
same,residual activity,[13]; [39],1.7%
same,residual activity,[14]; [39],89%
same,residual activity,[15]; [39],100%
same,residual activity,[16]; [39],31%
same,residual activity,[17]; [39],95%
same,residual activity,[18]; [39],92%
same,residual activity,[19]; [39],88%
same,inhibition,[20],-0.22%
same,residual activity,[21]; [39],100%
same,residual activity,[22]; [39],100%
same,residual activity,[23]; [39],93%
same,residual activity,[24]; [39],61%
same,residual activity,[25]; [39],98%
same,residual activity,[26]; [39],100%
same,residual activity,[27]; [39],73%
same,residual activity,[28]; [39],83%
same,residual activity,[29]; [39],100%
same,inhibition,[30],6.5%
same,residual activity,[31]; [39],90%
same,residual activity,[32]; [39],76%
same,residual activity,[33]; [39],86%
same,residual activity,[34]; [39],100%
same,residual activity,[35]; [39],100%
same,residual activity,[36]; [39],100%
same,residual activity,[37]; [39],85%
same,residual activity,[38]; [39],9.8%
CN(c1ccnc(CNc2nc(Nc3ccc4c(c3)CC(=O)N4)ncc2C(F)(F)F)n1)S(C)(=O)=O [PF-00911705],residual activity,[1]; [40],46%
same,residual activity,[2]; [40],90%
same,residual activity,[3]; [40],58%
same,residual activity,[4]; [40],92%
same,residual activity,[5]; [40],91%
same,residual activity,[6]; [40],82%
same,residual activity,[7]; [40],79%
same,residual activity,[8]; [40],95%
same,residual activity,[9]; [40],83%
same,residual activity,[10]; [40],9.9%
same,residual activity,[11]; [40],45%
same,residual activity,[12]; [40],78%
same,residual activity,[13]; [40],0.4%
same,residual activity,[14]; [40],6%
same,residual activity,[15]; [40],100%
same,residual activity,[16]; [40],21%
same,residual activity,[17]; [40],46%
same,residual activity,[18]; [40],50%
same,residual activity,[19]; [40],77%
same,inhibition,[20],0.5%
same,residual activity,[21]; [40],100%
same,residual activity,[22]; [40],93%
same,residual activity,[23]; [40],75%
same,residual activity,[24]; [40],26%
same,residual activity,[25]; [40],94%
same,residual activity,[26]; [40],80%
same,residual activity,[27]; [40],56%
same,residual activity,[28]; [40],63%
same,residual activity,[29]; [40],43%
same,inhibition,[30],1.24%
same,residual activity,[31]; [40],77%
same,residual activity,[32]; [40],84%
same,residual activity,[33]; [40],84%
same,residual activity,[34]; [40],66%
same,residual activity,[35]; [40],49%
same,residual activity,[36]; [40],72%
same,residual activity,[37]; [40],85%
same,residual activity,[38]; [40],15%
